Data taken from publication PMC7179167 (Molecules, 2020).
Values after ≈ are worked out from the molar mass of the structure shown. Read-outs that look alike come from different tables or passages of the source.

Key:
[1] = DPPH free radical scavenging assay; assay type: biochemical; settings: concentration of 20µg/l, mean ± SD of three experiments
Procedure: Antioxidant activity of the newly synthesized 13a–i, 14a–i, 11a–c and 12a–c were assessed in terms of hydrogen-donating or radical-scavenging ability via the stable free radical 1,1-diphenyl-2-picrylhydrazyl (DPPH) using ascorbic acid as a reference at a concentration of […].
The free radical scavenging activity (RSA) was assessed spectrophotometically at 517 nm via decoloration of the solution of the DPPH (1,1-diphenyl-2-picrylhydrazyl) radical according to Brand-Williams et al. 1995 [32]. DPPH solution was prepared by dissolving of 20 mg of DPPH in one liter of dimethylsulphoxide (DMSO). A freshly prepared DPPH solution was used for the assay. Each of the tested compounds 11a–c, 12a–c, 13a–i, 14a–i and 15a,b were dissolved in DMSO (1mg/mL). A volume of […] of a DMSO stock solution of the test compounds was added to 2 mL of freshly prepared DPPH in DMSO solution. The mixtures were shaken in a vortex (2500 rpm) for 1 min and then left to stand for 15, 30, 45 and 60 min in the dark room. The absorbance was measured at 517 nm against blank using UV visible spectrophotometer 2401 PC (Shimadzu, Kyoto, Japan). Lower absorbance of the reaction mixture indicated higher free radical scavenging activity was analyzed from the graph plots of the inhibition percentage against the compound concentration. The experiment was carried out in triplicate and averaged. The scavenging activity was calculated according to the following formula:Scavenging ability (%) = (A517 of control - A517of sample / A 517 of control) ×100(1)

[2] = test system: HCT-116 (human colon cancer); assay: MTT cytotoxicity assay, HCT-116; assay type: cell-based; settings: Homo sapiens; for inhibition at 100 µg/mL: HCT-116, 100 µg/ml, 48 h, read-out: Growth Inhibition (%) HCT-116; for IC50: HCT-116, 48 h, 48 h post-treatment
Procedure: (§1) MCF-7 (human breast cancer), HCT-116 (human colon cancer) and HepG2 (human liver cancer) cell lines were obtained from Karolinska Institute, Stockholm, Sweden. All cells were maintained in RPMI 1640 medium. The media were supplemented with 10% heat-inactivated fetal bovine serum plus 1% antibiotic-antimycoticmixture (10,000 U/mL of potassium penicillin, 10,000 μg/mL of streptomycin sulfate, 25 μg/mL of amphotericin B and 1% of L glutamine (Biowest, USA)). BJ-1 of a human skin fibroblast derived from normal foreskin was obtained from ATCC® CRL-2522™ as a frozen ampoule with about 1 × 10^6 cells per 1 ml volume. BJ-1 was maintained in MEM with 2 mM of L-glutamine and Earle’s salts medium.
(§2) Cell viability was studied using the MTT 3-(4,5-dimethylthiazol-2-yl)-2,5-diphenyl-tetrazolium bromide (Bio Basic Canada Inc. Toronto, Canada) assay [33]. The steps were executed in a sterile laminar air flow cabinet biosafety class II level (Baker, SG403INT; Sanford, ME, USA). All incubations were carried out at 37 °C in a 5% CO2 incubator under a humidified atmosphere of 95% (Sheldon, TC2323; Cornelius, OR, USA). Cells were seeded into 96-well microtiter plastic plates at a concentration of (10^4 cells/well) and allowed to adhere for 24 h. The medium was aspirated and then added to the cells with the test compounds 11a–c, 12a–c, 13a–i, 14a–i and 15a,b at a single dose of 100 μg/mL in DMSO. After incubation of the medium for 48 h, 40 μL of MTT salt (2.5 μg/mL) was added to each well and then incubated for an additional 4 h. To stop the reaction and dissolve any formed formazan crystals, 200 μL of 10% sodium dodecyl sulfate (SDS) were added to each well and incubated overnight at 37 °C. The amount of formazan product was measured at 595 nm with a reference wavelength of 690 nm as a background using a microplate reader (Bio-Rad Laboratories, model 3350, California, USA). For the untreated cells (negative control), the medium was added instead of the tested compounds. […] Dimethylsulfoxide (DMSO) was the vehicle used for dissolution of the testing compound, and its final concentration on the cells was less than 0.2%. At the same dilution, the solvent concentration was the same for all drugs and between the control and drug treatments.

[3] = test system: MCF-7 (human breast cancer); assay: MTT cytotoxicity assay, MCF-7; assay type: cell-based; settings: for inhibition at 100 µg/mL: MCF7, 100 µg/ml, 48 h, read-out: Growth Inhibition (%) MCF-7; for IC50: MCF7, 48 h post-treatment
Procedure: as §1, §2

[4] = test system: normal skin fibroblast cells (BJ-1); assay: MTT cytotoxicity assay, normal skin fibroblast BJ-1; assay type: cell-based; settings: Homo sapiens, 48 h, read-out: Growth Inhibition (%) BJ-1
Procedure: as §1, §2

[5] = 15 min, read-out: Scavenging Activity (%) on DPPH radicals at 15 min
[6] = 30 min, read-out: Scavenging Activity (%) on DPPH radicals at 30 min
[7] = 45 min, read-out: Scavenging Activity (%) on DPPH radicals at 45 min
[8] = 60 min, read-out: Scavenging Activity (%) on DPPH radicals at 60 min

Row | SMILES | inhibition [1, 5] | inhibition [1, 6] | inhibition [1, 7] | inhibition [1, 8] | inhibition at 100 µg/mL [2] | IC50 [2] | inhibition at 100 µg/mL [3] | IC50 [3] | inhibition at 100 µg/mL [4] | melting point
1 | O=C(c1ccc(Cl)cc1)n1cc(C2=NN(c3ccccc3)C3(C2)C(=O)Nc2ccccc23)c2ccccc21 (centres unmarked) [Compound 14f, 5’-(N-(4-Chlorobenzoyl)-1H-indol-3-yl)-2’-phenyl-2’,4’-dihydrospiro(indoline-3,3’-pyrazol)-2-one] | 9.05 ± 1.63% | 10.2 ± 1.83% | 16.2 ± 1.21% | 22.9 ± 1.62% | 91.4% | 35.8 µg/mL (≈ 69.2 µM) | 89.3% | 31.2 µg/mL (≈ 60.3 µM) | 14.5% | 162 to 164 °C
2 | O=C1Nc2ccccc2C12CC(c1cn(S(=O)(=O)c3ccc(Br)cc3)c3ccccc13)=NN2c1ccccc1 (centres unmarked) [Compound 14g, 5’-(N-(4-Bromo-benzenesulfonyl)-1H-indol-3-yl)-2’-phenyl-2’,4’-dihydrospiro(indoline-3,3’-pyrazol)-2-one] | 8.39 ± 1.14% | 11.9 ± 1.23% | 14.1 ± 2.01% | 26.6 ± 2.13% | 92.1% | 38 µg/mL (≈ 63.6 µM) | 90.6% | 37.4 µg/mL (≈ 62.6 µM) | 16% | 132 to 134 °C
3 | O=C(c1ccccc1)n1cc(C2=NN(c3ccccc3)C3(C2)C(=O)Nc2ccccc23)c2ccccc21 (centres unmarked) [Compound 14d, 5’-(N-Benzoyl-1H-indol-3-yl)-2’-phenyl-2’,4’-dihydrospiro(indoline-3,3’-pyrazol)-2-one] | 39.9 ± 1.75% | 41.8 ± 1.49% | 45 ± 1.37% | 55.4 ± 1.33% | 96.2% | 30.7 µg/mL (≈ 63.6 µM) | 94% | 31.6 µg/mL (≈ 65.5 µM) | 9.5% | 100 to 102 °C
4 | O=C1Nc2ccccc2C12CC(c1cn(S(=O)(=O)c3ccccc3[N+](=O)[O-])c3ccccc13)=NN2c1ccccc1 (centres unmarked) [Compound 14i, 5’-(N-(2-Nitro-benzenesulfonyl)-1H-indol-3-yl)-2’-phenyl-2’,4’-dihydrospiro(indoline-3,3’-pyrazol)-2-one] |  |  |  |  | 35.1% |  | 52.3% |  | 78.6% | 152 to 154 °C
5 | O=C(c1ccccc1Cl)n1cc(C2=NN(c3ccccc3)C3(C2)C(=O)Nc2ccccc23)c2ccccc21 (centres unmarked) [Compound 14e, 5’-(N-(2-Chlorobenzoyl)-1H-indol-3-yl)-2’-phenyl-2’,4’-dihydrospiro(indoline-3,3’-pyrazol)-2-one] | 17.9 ± 1.23% | 28.2 ± 1.27% | 30.9 ± 1.98% | 34.9 ± 1.72% | 35.1% |  | 85.3% | 54 µg/mL (≈ 104 µM) | 16.6% | 78 to 80 °C
6 | O=C1Nc2ccccc2C12CC(c1c[nH]c3ccccc13)=NN2c1ccccc1 (centres unmarked) [Compound 14a, 5’-(1H-Indol-3-yl)-2’-phenyl-2’,4’-dihydrospiro(indoline-3,3’-pyrazol)-2-one] | 41.1 ± 2.05% | 51.5 ± 1.91% | 54 ± 2.06% | 59.2 ± 2.14% | 91.2% | 36.2 µg/mL (≈ 95.7 µM) | 90.4% | 32.3 µg/mL (≈ 85.4 µM) | 14.2% | 124 to 126 °C
7 | O=C1Nc2ccccc2C12CC(c1cn(S(=O)(=O)c3ccc(Cl)cc3)c3ccccc13)=NN2c1ccccc1 (centres unmarked) [Compound 14h, 5’-(N-(4-Chloro-benzenesulfonyl)-1H-indol-3-yl)-2’-phenyl-2’,4’-dihydrospiro(indoline-3,3’-pyrazol)-2-one] | 57.9 ± 1.36% | 67.3 ± 1.35% | 72 ± 1.82% | 86 ± 2.17% | 96.2% |  | 94% |  | 86.5% | 110 to 112 °C
8 | O=C1O[C@H]([C@@H](O)CO)C(O)=C1O [Ascorbic acid, ascorbic acid, reference compound] | 94.4 ± 1.74% | 97.5 ± 1.32% | 98.78 ± 0.94% | 99.67 ± 0.28% |  |  |  |  |  | 
